Measurements from US10526383B2, “Ghrelin splice variant for treating neuronal damage, neurodegenerative disease, parkinsons disease, alzheimers disease, and/or depression” (priority 2013, dated 2020).
“Also recorded” adds a separate entry of the source. Where a SMILES comes first, the peptide text is derived from it. Where no end group is shown, it is not given here. The star is where a group is joined. Octanoyl = CCCCCCCC(=O)*

Key:
[1] = system: C57Bl/6 mice primary cell culture; assay: Trypan blue cell viability assay, protection against H2O2-induced cell death; assay type: cell-based; details: for protective action against the damages produced by H2O2 in terms of cell viability: 50 μM H2O2 plus 1 μM peptide, compared to negative control (H2O2)
Experimental: The protective effects of ghrelin splice variant against induced cell death, cell viability, of C57Bl/6 mice primary cell culture, was analysed by trypan blue assay, an indirect method based on the dye exclusion of live cells with intact cell membrane.
Cells were treated with 50 μM H2O2 to induce cell damages and death. The neuroprotective effect of ghrelin splice variant was tested by treating the cells with either H2O2 plus 1 μM ghrelin splice variant, H2O2 plus 1 μM ghrelin or H2O2 plus both peptides. Controls samples were untreated cells.

[2] = cited from earlier work
SN DA neurons = assay: mEPSC and mIPSC recordings of SN DA neurons after treatment of WT mice; assay type: in vivo; details: compared with saline control, n=6 cells
Experimental: Brain slices preparation: Brain slices (300 µm) containing the SN, will be cut on a vibratome from 4-6 week old males (n=10 per group). Briefly, animals will be anesthetized with Nembutal (80 mg/kg) and then decapitated. The brains will be rapidly removed and immersed in cold […] oxygenated bath solution (containing (mM): NaCl 150, KCl 2.5, CaCl2 2, MgCl2 2 Hepes 10, and glucose […] with NaOH). After being trimmed to contain only the SN, slices will be transferred to a recording chamber where they are constantly perfused with bath solution at 2 ml/min. DA neurons in the SN are identified by presence of a large Ih current (>100 pA) evoked by hyperpolarizing voltage steps from −50 to −120 mV for 2 s (22). This approach identifies dopaminergic cells with >90% accuracy. […] Electrophysiological data will be analyzed with Axograph 4.9 (Axon Instruments) and plotted with Igor Pro software (WaveMetrics, Lake Oswego, Oreg., USA). […] The pipette will be filled with a solution containing the following (mM): KMeSO, 145 (mEPSC) or KCL, 145 (mIPSC); MgCl2, 2; HEPES, 10; Mg-ATP, 2.; Nat-GTP, 0.3; and KOH to adjust pH to 7.3. mEPSC recordings will be achieved under the prescence of TTX and bicucullin, whereas mIPSC will be monitored under the presence of TTX, AP5 and CNQX. The frequency and amplitude of mEPSC and IPSC will be recorded as described previously. […] N=number of cells recorded.

growth hormone = assay: GH release after subcutaneous bolus injection (growth hormone ELISA); assay type: in vivo, mice; details: 20 μg subcutaneous bolus; 10 minutes after administration
Experimental: Acylated ghrelin splice variants (20 μg) or the Vehicle (1.6% mannitol) were administered by a subcutaneous bolus injection (Corresponding to 0.3 μmol/kg) to 5 mice each. Blood was sampled 10 and 20 min after injection. Serum samples were stored at −70° C. and analyzed by the RAT/MOUSE GROWTH HORMONE ELISA KIT 96-Well Plate (Cat. EZRMGH-45K) (Millipore Corporation, Billerica, Mass., USA). Results: The serum […] growth hormone concentration 10 minutes after subcutaneous administration of acylated ghrelin splice variant or the Vehicle was 2-14-fold higher in the ghrelin splice variant group in comparison to the vehicle group.

MPTP-mice = assay: MPTP mouse model of Parkinson's disease; assay type: in vivo; details: 10 nmol once-a-day, day -7 to day 10 after MPTP
Experimental: In the MPTP model, the bilateral dopaminergic neuronal death of the substantia nigra and dopamine depletion of the striatum is created by i.p. injection of MPTP. Experimental groups:
• Group 1: 10 Sham-mice treated with vehicle (10 ml/kg) once-a-day starting day-7 and continuing until the end of the study day 10 • Group 2: 10 MPTP-mice treated with vehicle (10 ml/kg) once-a-day starting day-7 and continuing until the end of the study day 10 • Group 3: 10 MPTP-mice treated with Ghrelin SplicVariant (10 nmol) once-a-day starting day-7 and continuing until the end of the study day 10 Ghrelin Splice Variant or vehicle was administered once-a-day immediately before the dark phase, and […] were removed overnight starting seven days prior to MPTP challenge and continued until end-point day 10 after MPTP. Striatal levels of dopamine (DA), […] (DOPAC) and homovanillic acid (HVA) are evaluated 10 days after the injection of MPTP with HPLC. In addition, the selective damage to dopaminergic neurons in the SNc is evaluated with tyrosine hydroxylase (TH) immunoreactivity. Food intake and body weight were monitored daily in all mice administered Ghrelin Splice Variant.

[3] = Pharmacokinetics after subcutaneous administration, plasma LC/MS/MS; assay type: in vivo, Sprague-Dawley rats; details: Sprague-Dawley, rat; for half-life: across dose groups; for AUC / AUC(0-inf): SC; for AUC: high dose (10 mg/kg)
Experimental: Subcutaneous administration of ghrelin splice variants was performed at three dose levels of 0.5, 2.5 and 10 mg/kg corresponding to concentrations of 0.1, 0.5 and 2 mg/ml, respectively, and at a constant volume dosage of 5 ml/kg. Intravenous injection was performed at one dose level of 0.5 mg/kg corresponding to a concentration of 0.1 mg/ml and a constant volume dosage of 5 ml/kg as well. The study comprised 9 male and 9 female Sprague-Dawley™ (SD™) rats per dose level and route of administration.
Bleeding sampling design was confined to 9 bleeding time points for each dose level: pre-dosing, 5, 15, 30, 60 and 90 min, 3, 5 and 24 hrs, post-dosing. Each group was divided into 3 sub-groups, each being assigned 3 specific bleeding time points, in order to receive 3 individual samples/time point/group (total of 27 individual samples/group). […] Whole blood samples were kept on ice from the time of blood collection until the time of centrifugation. The obtained plasma samples were flash frozen in liquid nitrogen and kept on dry ice until removal to −70° C.
Concentrations of the Test Item in plasma were determined by LC/MS/MS (liquid chromatography/mass spectrometry/mass spectrometry). Pharmacokinetic analysis of Ghrelin Splice Variant was based on mean plasma concentration time profiles for each dose group as obtained by Non-compartmental Pharmacokinetic analysis, generated by the use of the computer software: “PK Solutions 2.0” (Summit Research Services, Colo., USA).

SNpc DA neurons [4] = assay: mEPSC recordings in GHSR1a knockout mice and their WT littermates; assay type: cell-based; details: 1 μM, in presence of TTX and bicuculline
SNpc DA neurons [5] = assay: Patch clamp (whole-cell current clamp) recordings of action potentials in brain slices, bath application; assay type: cell-based, mice; details: 1 μM
Experimental: Brain slices preparation: Brain slices (300 µm) containing the SN, will be cut on a vibratome from 4-6 week old males (n=10 per group). Briefly, animals will be anesthetized with Nembutal (80 mg/kg) and then decapitated. The brains will be rapidly removed and immersed in cold […] oxygenated bath solution (containing (mM): NaCl 150, KCl 2.5, CaCl2 2, MgCl2 2 Hepes 10, and glucose […] with NaOH). After being trimmed to contain only the SN, slices will be transferred to a recording chamber where they are constantly perfused with bath solution at 2 ml/min. DA neurons in the SN are identified by presence of a large Ih current (>100 pA) evoked by hyperpolarizing voltage steps from −50 to −120 mV for 2 s (22). This approach identifies dopaminergic cells with >90% accuracy. In brain slices, whole-cell current clamp will be used to observe spontaneous action potentials. Slices will be maintained at 330 C and perfused continuously with ASCF (bubbled with 5% CO2 and 95% O2) containing (in mM): NaCl, 124; KCl, 3; CaCl2, 2; MgCl2, 2; NaH2PO4, 1.23; NaHCO3, 26; glucose, 10; pH 7.4 with NaOH. Ghrelin Splice Variant will be applied to the recording chamber via bath application.The pipette solution containes (mM): Gluconic Acid 140, CaCl2, MgCl2 2, EGTA 1, HEPES 10, Mg-ATP 4, and Na2-GTP 0.5, pH 7.3 with KOH. To further explore the mechanism of Ghrelin Splice Variant-mediated effect on action potentials in DA neurons, we will analyze the effect of Ghrelin Splice Variant on action potential frequency either in the presence of ionotropic glutamate receptor antagonists CNQX (10 µM) and APS (50 µM) in all solutions, or in the presence of bicuculine (30 µM; to block diminish GABA effects) in all solutions. Analysis: All data will be sampled at 3-10 kHz and […] at 1-3 kHz with an Apple Macintosh computer using Axograph 4.9 (Axon Instruments). Electrophysiological data will be analyzed with Axograph 4.9 (Axon Instruments) and plotted with Igor Pro software (WaveMetrics, Lake Oswego, Oreg., USA). To complement, the electron microscopic measurements of synapses, we will also analyze mEPSC and mIPSC of SN DA neurons. Mice (C57BL/J6; n=10) between the ages of 4-6 weeks of age will be injected with Ghrelin Splice Variant (30 μg in 0.3 ml) or vehicle ip at 09:00 hrs. Two hours later, animals will be sacrificed under neinbutal anesthesia and their brains collected as described above. For the recording of mEPSCs and IPSCs, SN DA cells will be patched with pipettes with a tip resistance of 4-6 MΩ and partially compensated by the amplifier. The pipette will be filled with a solution containing the following (mM): KMeSO, 145 (mEPSC) or KCL, 145 (mIPSC); MgCl2, 2; HEPES, 10; Mg-ATP, 2.; Nat-GTP, 0.3; and KOH to adjust pH to 7.3. mEPSC recordings will be achieved under the prescence of TTX and bicucullin, whereas mIPSC will be monitored under the presence of TTX, AP5 and CNQX. The frequency and amplitude of mEPSC and IPSC will be recorded as described previously. Differences in the frequency of mEPSCs and mIPSCs of DA cells from Ghrelin Splice Variant and saline treated animals will be compared using unpaired t-tests with the critical level set at α=0.05). […] N=number of cells recorded.

[6] = listed as Ghrelin splice variant

With `OO` [H2O2, reference compound] the cell survival ([1]; 50 μM H2O2 alone) was 50%.

For “Ghrelin: 28 amino acid peptide bearing an n-octanoyl side chain on the third serine (GSS(Octanoyl)FLSPEHQRVQQRKESKKPPAKLQPR; UniProt Q9UBU3 24-51, looked up) [reference compound]”, the “protective action against the damages produced by H2O2 in terms of cell viability” value (“protective action” below) [1] is listed as “statistically significant”, the “protective action” value ([1]; listed as ghrelin) is listed as “statistically significant effective protective action” and the “increase of food intake” value ([2]; infusion for 90 minutes, cancer cachexia patients) is listed as 30%. The “increase of energy intake” value ([2]; subcutaneous injection of 3.6 nmol/kg prior to a meal) was 27%.

With `CCCCCCCC(=O)OC[C@H](NC(=O)[C@H](CO)NC(=O)CN)C(=O)N[C@@H](Cc1ccccc1)C(=O)N[C@@H](CC(C)C)C(=O)N[C@@H](CO)C(=O)N1CCC[C@H]1C(=O)N[C@@H](CCC(=O)O)C(=O)N[C@@H](Cc1c[nH]cn1)C(=O)N[C@@H](CCC(N)=O)C(=O)N[C@@H](CCCNC(=N)N)C(=O)N[C@H](C(=O)N[C@@H](CCC(N)=O)C(=O)N[C@H](C(=O)N[C@@H](CCCNC(=N)N)C(=O)N1CCC[C@H]1C(=O)N1CCC[C@H]1C(=O)N[C@@H](Cc1c[nH]cn1)C(=O)N[C@@H](CCCCN)C(=O)N[C@@H](C)C(=O)N1CCC[C@H]1C(=O)N[C@@H](Cc1c[nH]cn1)C(=O)O)C(C)C)C(C)C` [Ghrelin Splice Variant] (H-GSS(Octanoyl)FLSPEHQRVQVRPPHKAPH-OH) the “frequency of mEPSCs” value (SN DA neurons) was 67.2 ± 3.1, the “frequency of mIPSCs” value (SN DA neurons) was 60.5 ± 8.9 and the “serum and brain growth hormone concentration in comparison to the vehicle group” value (growth hormone) was 2-14 fold. For the same compound, the “MPTP-induced nigrostriatal DA damage (loss of DA neurons)” value (MPTP-mice) was “attenuates MPTP-induced nigrostriatal PA damage”, the “cumulative weight gain / recovery after MPTP treatment” value (MPTP-mice) was “managed to recover after the MPTP treatment” and the half-life ([3]; subcutaneous, female rats) was 10.7 to 28.9 min. It also gave a half-life ([3]; subcutaneous, male rats) of 17.4 to 26.4 min, a Tmax ([3]; both sexes, subcutaneous, post-dosing, all dose groups) of 5 min and an AUC ([3]; female, females) of 818 ng·h/mL. It also gave an AUC(0-inf) ([3]; female, low dose (0.5 mg/kg), females) of 86.7 ng·h/mL, an AUC(0-inf) ([3]; female, mid dose (2.5 mg/kg), females) of 347 ng·h/mL and an AUC ([3]; male, males) of 1320 ng·h/mL. The AUC(0-inf) ([3]; male, low dose (0.5 mg/kg), males) was 102 ng·h/mL, the AUC(0-inf) ([3]; male, mid dose (2.5 mg/kg), males) was 313 ng·h/mL and the “protective action” value [1, 6] was “effective protective action”. For the same compound, the “protective action” value ([1]; listed as ghrelin splice variant) was “statistically significant effective protective action; also recorded: greater than ghrelin treatment”, the mEPSC frequency (SNpc DA neurons [4]; GHSR1a knockout mice, n=9 cells) was 27.3+/−2.8 per min and the mEPSC frequency (SNpc DA neurons [4]; WT animals, n=31 cells) was 98.1+/−24.7 per min. The action potential firing (SNpc DA neurons [5]) was “increment in AP firing”, the depolarization (SNpc DA neurons [5]) was “about 10 mV” and the “duration of effect after washout” value (SNpc DA neurons [5]) was 20 min. For the same compound, the action potential firing (SNpc DA neurons [5]; [6]) was “increment in action potential firing” and the “duration of effect after washout” value (SNpc DA neurons [5]; [6]) was “at least 20 minutes”.
